# Reference: patent US10799522B2, “Compositions and methods relating to galectin detection” (Wayne State University, priority 2015, dated 2020)
# Assay: radiation dosimetry estimates for human patients
# Details: adult male
# [1] = target organ Urinary Bladder Wall
smiles,measurement,setting,value
"OCC1OC(SC2OC(CO)C(O)C(n3cc(-c4cccc([18F])c4)nn3)C2O)C(O)C(n2cc(-c3cccc(F)c3)nn2)C1O [[^18F]FPTDG, 3-(3-[^18F]fluorophenyltriazolyl)-3-deoxy-3′-(3-fluorophenyltriazolyl)-3′-deoxy-1-thio-β-D-digalactopyranoside]","Estimated organ dose, ED Cont.",target organ Ovaries,1.20 mSv per 370 MBq dose or 10 mCi
same,"Estimated organ dose, EDE Cont.",target organ Ovaries,1.50 mSv per 370 MBq dose or 10 mCi
same,"Estimated organ dose, Photon",target organ Ovaries,4.32 mSv per 370 MBq dose or 10 mCi
same,"Estimated organ dose, Total",target organ Ovaries,6.02 mSv per 370 MBq dose or 10 mCi
same,"Estimated organ dose, Alpha",target organ Pancreas,0 mSv per 370 MBq dose or 10 mCi
same,"Estimated organ dose, Beta",target organ Pancreas,1.70 mSv per 370 MBq dose or 10 mCi
same,"Estimated organ dose, ED Cont.",target organ Pancreas,0.03 mSv per 370 MBq dose or 10 mCi
same,"Estimated organ dose, EDE Cont.",target organ Pancreas,0.35 mSv per 370 MBq dose or 10 mCi
same,"Estimated organ dose, Photon",target organ Pancreas,4.2 mSv per 370 MBq dose or 10 mCi
same,"Estimated organ dose, Total",target organ Pancreas,5.90 mSv per 370 MBq dose or 10 mCi
same,"Estimated organ dose, Alpha",target organ Red Marrow,0 mSv per 370 MBq dose or 10 mCi
same,"Estimated organ dose, Beta",target organ Red Marrow,1.21 mSv per 370 MBq dose or 10 mCi
same,"Estimated organ dose, ED Cont.",target organ Red Marrow,0.51 mSv per 370 MBq dose or 10 mCi
same,"Estimated organ dose, EDE Cont.",target organ Red Marrow,0.51 mSv per 370 MBq dose or 10 mCi
same,"Estimated organ dose, Photon",target organ Red Marrow,3.03 mSv per 370 MBq dose or 10 mCi
same,"Estimated organ dose, Total",target organ Red Marrow,4.24 mSv per 370 MBq dose or 10 mCi
same,"Estimated organ dose, Alpha",target organ Skin,0 mSv per 370 MBq dose or 10 mCi
same,"Estimated organ dose, Beta",target organ Skin,1.70 mSv per 370 MBq dose or 10 mCi
same,"Estimated organ dose, ED Cont.",target organ Skin,0.03 mSv per 370 MBq dose or 10 mCi
same,"Estimated organ dose, EDE Cont.",target organ Skin,0.00 mSv per 370 MBq dose or 10 mCi
same,"Estimated organ dose, Photon",target organ Skin,1.76 mSv per 370 MBq dose or 10 mCi
same,"Estimated organ dose, Total",target organ Skin,3.46 mSv per 370 MBq dose or 10 mCi
same,"Estimated organ dose, Alpha",target organ Small Intestine,0 mSv per 370 MBq dose or 10 mCi
same,"Estimated organ dose, Beta",target organ Small Intestine,4.15 mSv per 370 MBq dose or 10 mCi
same,"Estimated organ dose, ED Cont.",target organ Small Intestine,0.04 mSv per 370 MBq dose or 10 mCi
same,"Estimated organ dose, EDE Cont.",target organ Small Intestine,0.50 mSv per 370 MBq dose or 10 mCi
same,"Estimated organ dose, Photon",target organ Small Intestine,4.21 mSv per 370 MBq dose or 10 mCi
same,"Estimated organ dose, Total",target organ Small Intestine,8.36 mSv per 370 MBq dose or 10 mCi
same,"Estimated organ dose, Alpha",target organ Spleen,0 mSv per 370 MBq dose or 10 mCi
same,"Estimated organ dose, Beta",target organ Spleen,1.70 mSv per 370 MBq dose or 10 mCi
same,"Estimated organ dose, ED Cont.",target organ Spleen,0.03 mSv per 370 MBq dose or 10 mCi
same,"Estimated organ dose, EDE Cont.",target organ Spleen,0.00 mSv per 370 MBq dose or 10 mCi
same,"Estimated organ dose, Photon",target organ Spleen,3.52 mSv per 370 MBq dose or 10 mCi
same,"Estimated organ dose, Total",target organ Spleen,5.22 mSv per 370 MBq dose or 10 mCi
same,"Estimated organ dose, Alpha",target organ Stomach Wall,0 mSv per 370 MBq dose or 10 mCi
same,"Estimated organ dose, Beta",target organ Stomach Wall,9.17 mSv per 370 MBq dose or 10 mCi
same,"Estimated organ dose, ED Cont.",target organ Stomach Wall,1.79 mSv per 370 MBq dose or 10 mCi
same,"Estimated organ dose, EDE Cont.",target organ Stomach Wall,0.90 mSv per 370 MBq dose or 10 mCi
same,"Estimated organ dose, Photon",target organ Stomach Wall,5.78 mSv per 370 MBq dose or 10 mCi
same,"Estimated organ dose, Total",target organ Stomach Wall,14.90 mSv per 370 MBq dose or 10 mCi
same,"Estimated organ dose, Alpha",target organ Testes,0 mSv per 370 MBq dose or 10 mCi
same,"Estimated organ dose, Beta",target organ Testes,1.70 mSv per 370 MBq dose or 10 mCi
same,"Estimated organ dose, ED Cont.",target organ Testes,0.00 mSv per 370 MBq dose or 10 mCi
same,"Estimated organ dose, EDE Cont.",target organ Testes,0.00 mSv per 370 MBq dose or 10 mCi
same,"Estimated organ dose, Photon",target organ Testes,2.67 mSv per 370 MBq dose or 10 mCi
same,"Estimated organ dose, Total",target organ Testes,4.37 mSv per 370 MBq dose or 10 mCi
same,"Estimated organ dose, Alpha",target organ Thymus,0 mSv per 370 MBq dose or 10 mCi
same,"Estimated organ dose, Beta",target organ Thymus,1.70 mSv per 370 MBq dose or 10 mCi
same,"Estimated organ dose, ED Cont.",target organ Thymus,0.02 mSv per 370 MBq dose or 10 mCi
same,"Estimated organ dose, EDE Cont.",target organ Thymus,0.00 mSv per 370 MBq dose or 10 mCi
same,"Estimated organ dose, Photon",target organ Thymus,2.63 mSv per 370 MBq dose or 10 mCi
same,"Estimated organ dose, Total",target organ Thymus,4.33 mSv per 370 MBq dose or 10 mCi
same,"Estimated organ dose, Alpha",target organ Thyroid,0 mSv per 370 MBq dose or 10 mCi
same,"Estimated organ dose, Beta",target organ Thyroid,1.70 mSv per 370 MBq dose or 10 mCi
same,"Estimated organ dose, ED Cont.",target organ Thyroid,0.22 mSv per 370 MBq dose or 10 mCi
same,"Estimated organ dose, EDE Cont.",target organ Thyroid,0.13 mSv per 370 MBq dose or 10 mCi
same,"Estimated organ dose, Photon",target organ Thyroid,2.78 mSv per 370 MBq dose or 10 mCi
same,"Estimated organ dose, Total",target organ Thyroid,4.48 mSv per 370 MBq dose or 10 mCi
same,"Estimated organ dose, Alpha",target organ ULI Wall,0 mSv per 370 MBq dose or 10 mCi
same,"Estimated organ dose, Beta",target organ ULI Wall,1.70 mSv per 370 MBq dose or 10 mCi
same,"Estimated organ dose, ED Cont.",target organ ULI Wall,0.03 mSv per 370 MBq dose or 10 mCi
same,"Estimated organ dose, EDE Cont.",target organ ULI Wall,0.00 mSv per 370 MBq dose or 10 mCi
same,"Estimated organ dose, Photon",target organ ULI Wall,4.02 mSv per 370 MBq dose or 10 mCi
same,"Estimated organ dose, Total",target organ ULI Wall,5.71 mSv per 370 MBq dose or 10 mCi
same,"Estimated organ dose, Alpha",[1],0 mSv per 370 MBq dose or 10 mCi
same,"Estimated organ dose, Beta",[1],1.70 mSv per 370 MBq dose or 10 mCi
same,"Estimated organ dose, ED Cont.",[1],0.27 mSv per 370 MBq dose or 10 mCi
same,"Estimated organ dose, EDE Cont.",[1],0.00 mSv per 370 MBq dose or 10 mCi
same,"Estimated organ dose, Photon",[1],3.63 mSv per 370 MBq dose or 10 mCi
same,"Estimated organ dose, Total",[1],5.33 mSv per 370 MBq dose or 10 mCi
same,"Estimated organ dose, Alpha",target organ Uterus,0 mSv per 370 MBq dose or 10 mCi
same,"Estimated organ dose, Beta",target organ Uterus,1.70 mSv per 370 MBq dose or 10 mCi
same,"Estimated organ dose, ED Cont.",target organ Uterus,0.03 mSv per 370 MBq dose or 10 mCi
same,"Estimated organ dose, EDE Cont.",target organ Uterus,0.35 mSv per 370 MBq dose or 10 mCi
same,"Estimated organ dose, Photon",target organ Uterus,4.06 mSv per 370 MBq dose or 10 mCi
same,"Estimated organ dose, Total",target organ Uterus,5.76 mSv per 370 MBq dose or 10 mCi
